Laboratory results taken from patent US20090232735A1, “USE OF FRUCTOSE-BASED THERAPIES FOR THE TREATMENT OF CANCER” (CEDARS-SINAI MEDICAL CENTER, priority 2005, published 2009).

Tested on: transketolase (TKK)
Experiment: Transketolase activity (NADH oxidation) in PANC-1 lysates
Assay type: cell-based, human
Conditions: PANC-1, 5.5 mM fructose
Procedure: FIG. 34 depicts quantitation of transketolase activity in pancreatic cancer PANC-1 cells following incubation in 2 mM glucose, 5.5 mM glucose, and 5.5 mM fructose for 24 h, 48 h, and 72 h respectively, in accordance with an embodiment of the present invention.
The inventors believe that fructose-treatment of pancreatic cancer cells led to an increase in TKK-driven nucleic acid synthesis, and thus fructose-treatment would result in an increase in either PANC-1 TKK expression and/or activity in comparison to equivalent glucose concentrations. Western blot analysis on protein lysates derived from fructose-, and glucose-treated PANC-1 cells were performed (5.5 mM fructose, and glucose for 24, and 48 h as per previous protocol) using a specific TKK antibody, and compared TKK expression in the fructose-, and glucose-treated PANC-1 cells. As depicted in FIG. 33, TKK expression at 24 h, and 48 h in protein lysates derived from 5.5 mM glucose-treated PANC-1 cells was increased in comparison to expression in 2 mM glucose-treated cells. However, highest TKK expression was observed after 5.5 mM fructose treatment at 24 h, and 48 h, and TKK levels were almost 2-fold higher in 5.5 mM fructose-treated, in comparison to 5.5 mM glucose-treated cells (p<0.01). […] After gentle mixing the absorbance of the mixture was measured at 10 min intervals for 2 h at 340 nm. Transketolase activity was then derived from the difference in absorbance at 10, and 80 minutes, and expressed as nmol/min/million cells. […] Pancreatic cancer proliferation rates were then measured using the MTS assay (FIG. 35).

O=C(CO)[C@@H](O)[C@H](O)[C@H](O)CO [fructose]
TKK activity higher than 5.5 mM glucose-treated cells (24 h): 2 fold
TKK activity higher than 5.5 mM glucose-treated cells (48 h): 3 fold
TKK activity higher than 5.5 mM glucose-treated cells (72 h): 1.7 fold
